T1: Mouse cKIT ECD, C-terminal 6x His (Sino Biological Inc, catalog number 50530-M08H) (mouse, UniProt P05532 25-527)
T1 construct: extracellular domain; Bought protein
T1 sequence (looked up): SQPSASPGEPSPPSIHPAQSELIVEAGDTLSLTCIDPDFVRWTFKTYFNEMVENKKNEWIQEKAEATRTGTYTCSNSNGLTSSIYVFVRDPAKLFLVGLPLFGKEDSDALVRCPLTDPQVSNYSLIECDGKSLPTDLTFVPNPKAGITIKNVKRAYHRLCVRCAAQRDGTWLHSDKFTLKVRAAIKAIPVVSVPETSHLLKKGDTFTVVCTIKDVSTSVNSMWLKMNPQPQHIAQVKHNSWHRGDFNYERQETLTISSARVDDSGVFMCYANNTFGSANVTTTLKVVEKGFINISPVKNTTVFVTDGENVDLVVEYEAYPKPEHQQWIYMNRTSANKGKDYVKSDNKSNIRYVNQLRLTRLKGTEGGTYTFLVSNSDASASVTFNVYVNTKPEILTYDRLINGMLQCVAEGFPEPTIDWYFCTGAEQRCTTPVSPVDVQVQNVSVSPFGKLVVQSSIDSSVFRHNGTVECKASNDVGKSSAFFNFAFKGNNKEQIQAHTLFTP

T2: Rat cKIT D1-5 (residues 25-526, C-terminal mFc) (rat)
T2 construct: The entry includes the linker and mouse Fc tag; also called rat cKIT-mFc
T2 chain: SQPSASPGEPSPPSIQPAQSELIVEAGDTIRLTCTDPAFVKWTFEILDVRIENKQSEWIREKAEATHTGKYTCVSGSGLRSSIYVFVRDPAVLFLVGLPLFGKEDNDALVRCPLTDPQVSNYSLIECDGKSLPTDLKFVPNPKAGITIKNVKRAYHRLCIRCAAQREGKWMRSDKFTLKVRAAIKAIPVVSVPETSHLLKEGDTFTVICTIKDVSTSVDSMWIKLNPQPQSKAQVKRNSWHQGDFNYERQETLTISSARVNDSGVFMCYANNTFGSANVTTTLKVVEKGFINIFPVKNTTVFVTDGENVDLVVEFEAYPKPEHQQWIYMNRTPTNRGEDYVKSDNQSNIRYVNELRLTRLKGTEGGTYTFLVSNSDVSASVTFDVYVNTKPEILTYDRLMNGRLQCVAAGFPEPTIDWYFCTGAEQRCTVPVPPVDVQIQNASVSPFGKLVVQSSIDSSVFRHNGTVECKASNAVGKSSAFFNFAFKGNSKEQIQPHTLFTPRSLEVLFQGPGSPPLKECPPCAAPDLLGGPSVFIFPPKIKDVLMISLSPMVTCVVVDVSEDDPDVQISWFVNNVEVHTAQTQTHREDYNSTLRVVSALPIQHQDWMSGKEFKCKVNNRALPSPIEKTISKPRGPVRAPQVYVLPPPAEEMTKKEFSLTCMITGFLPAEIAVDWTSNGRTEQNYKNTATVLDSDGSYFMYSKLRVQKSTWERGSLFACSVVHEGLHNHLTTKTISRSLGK

T3: Cynomolgus monkey cKIT D1-5 (residues 25-520, C-terminal His tag) (cynomolgus monkey, UniProt P10721 25-520 (human entry))
T3 construct: the signal peptide was not part of the protein in the assay; also called cyno cKIT; cynomolgus monkey ECD
T3 chain: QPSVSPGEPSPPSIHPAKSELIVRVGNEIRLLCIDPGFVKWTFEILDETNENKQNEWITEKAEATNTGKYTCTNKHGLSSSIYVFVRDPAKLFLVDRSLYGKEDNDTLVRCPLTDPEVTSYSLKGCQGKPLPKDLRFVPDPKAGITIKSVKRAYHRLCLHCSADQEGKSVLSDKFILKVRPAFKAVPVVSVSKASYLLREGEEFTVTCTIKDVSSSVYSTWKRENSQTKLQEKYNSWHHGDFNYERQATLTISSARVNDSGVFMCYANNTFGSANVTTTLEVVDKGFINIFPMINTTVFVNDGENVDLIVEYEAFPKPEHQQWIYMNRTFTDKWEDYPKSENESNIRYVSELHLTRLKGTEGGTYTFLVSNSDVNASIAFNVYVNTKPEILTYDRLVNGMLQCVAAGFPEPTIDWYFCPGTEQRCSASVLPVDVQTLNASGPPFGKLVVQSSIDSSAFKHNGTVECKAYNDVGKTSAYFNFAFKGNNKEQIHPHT


What was measured:
[1] = tested on: HAMLX5343 systemic primary AML xenograft
Procedure: Female NSG mice were implanted systemically (via tail vein injection) with 5×10^6 cells in phosphate buffered saline.
Leukemic burden was measured by flow cytometry. Weekly, blood was collected from all study animals via the tail. […] The stained cells were analyzed on a FACS Canto flow cytometer (BD Biosciences) (FIG. 52A). Body weights were measured twice weekly (FIG. 52B).

GIST430 cell line = experiment: Combination dose-matrix cell viability (CellTiter Glo, Loewe model); type: cell-based; conditions: NEG085-MCC-DM1 in combination with the compound, 120 h
Procedure: (§1) Relative inhibition of cell viability was calculated for every dose combination. […] Excess inhibition compared to additivity can be plotted as a full dose-matrix chart to visualize the drug concentrations where synergies occur. Synergistic combinations produced regions of excess inhibition within the dose-matrix. […] “Additivity” was found when the combination generated the same inhibition of cell viability response when compared to the response with the single agent by itself “Synergy” was indicated when the inhibition of cell viability was greater than the response of the single agent compared with itself. Alternatively, “Additivity” was indicated with a Loewe score of less than 5, and “Synergy” was indicated by a Loewe score of greater than 5.
(§2) Cell viability was determined by measuring cellular ATP content using the CellTiter Glo luminescence assay (Promega, Madison Wis.). One day before drug addition, 250-500 GIST cells from 2 different cell lines were plated into 384-well plates (Greiner, Monroe, N.C.) in 20 μl growth media.

GIST882 cell line = experiment: as above; type: cell-based; conditions: NEG085-MCC-DM1 in combination with the compound, 120 h
Procedure: as §1, §2

[2] = biological target: T1, Mouse cKIT ECD, C-terminal 6x His (Sino …); experiment: SPR (Biacore 2000), antibody captured on anti-human Fc
[3] = biological target: T2, Rat cKIT D1-5 (residues 25-526, …); experiment: as above
[4] = biological target: T4, Human cKIT D1-5 (human cKIT tr. variant 2, residues 26-520, C-terminal His tag) (human, UniProt P10721 26-524); experiment: SPR (Biacore 2000), antibody captured on anti-human Fc, cKIT ECD as analyte, 25 C, 1:1 fit
T4 construct: also called human cKIT ECD; Human c-Kit ECD
T4 sequence (P10721 other isoform, or with tags, fused parts or gaps mutant limits assumed): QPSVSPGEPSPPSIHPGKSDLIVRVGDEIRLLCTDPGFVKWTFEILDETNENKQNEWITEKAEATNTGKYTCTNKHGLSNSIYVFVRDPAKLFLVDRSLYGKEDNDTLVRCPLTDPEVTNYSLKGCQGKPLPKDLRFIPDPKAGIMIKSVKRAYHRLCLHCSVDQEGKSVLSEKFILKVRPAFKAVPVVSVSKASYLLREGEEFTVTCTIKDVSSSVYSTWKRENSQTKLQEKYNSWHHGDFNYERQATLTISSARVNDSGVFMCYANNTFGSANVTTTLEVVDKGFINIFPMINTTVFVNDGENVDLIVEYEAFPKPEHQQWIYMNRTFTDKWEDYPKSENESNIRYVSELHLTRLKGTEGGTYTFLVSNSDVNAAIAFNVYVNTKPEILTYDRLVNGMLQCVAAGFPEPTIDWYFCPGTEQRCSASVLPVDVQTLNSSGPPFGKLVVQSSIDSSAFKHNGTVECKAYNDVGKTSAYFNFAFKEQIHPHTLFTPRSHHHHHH

[5] = biological target: T3, Cynomolgus monkey cKIT D1-5 (residues …); experiment: as above

Molecule	GIST430 cell line (GIST430 cell line)	GIST882 cell line (GIST882 cell line)	other results
Nc1ccn([C@@H]2O[C@H](CO)[C@@H](O)[C@@H]2O)c(=O)n1 [ARA-C (cytarabine), cytarabine, reference compound]	–	–	Mean change of body weight (from day 67, % ± SEM) ([1]; Day 71, 50 mg/kg Daily × 6 days, intraperitoneally): 2.3 ± 2.3%; anti-tumor activity (leukemic burden) ([1]; NSG mice, intraperitoneally daily for 6 days): efficacious in three of the animals; bodyweight loss ([1]; intraperitoneally daily for 6 days, in three of six animals): > 20%; Mean change of tumor volume (% CD45 positive PBMC's ± SEM) ([1]; mouse, in vivo): −6.6 ± 2.1 % CD45 positive PBMC's; Regression (%) ([1]; mouse, in vivo): −52.5%
CO[C@H]1C[C@@H]2CC[C@@H](C)[C@@](O)(O2)C(=O)C(=O)N2CCCC[C@H]2C(=O)O[C@H]([C@H](C)C[C@@H]2CC[C@@H](OCCO)[C@H](OC)C2)CC(=O)[C@H](C)/C=C(\C)[C@@H](O)[C@@H](OC)C(=O)[C@H](C)C[C@H](C)/C=C/C=C/C=C/1C [Afinitor ®, Everolimus]	Synergy (“Synergy” was indicated by a Loewe score of greater than 5)	Synergy (“Synergy” was indicated by a Loewe score of greater than 5)	–
Cn1c(=O)n(-c2ccc(C(C)(C)C#N)cc2)c2c3cc(-c4cnc5ccccc5c4)ccc3ncc21 [NVP-BEZ235, 2-Methyl-2-[4-[3-methyl-2-oxo-8-(quinolin-3-yl)-2,3-dihydroimidazo[4,5-c]quinolin-1-yl]phenyl]propionitrile]	Additivity (“Additivity” was indicated with a Loewe score of less than 5)	Synergy (“Synergy” was indicated by a Loewe score of greater than 5)	–
Nc1cc(C(F)(F)F)c(-c2cc(N3CCOCC3)nc(N3CCOCC3)n2)cn1 [NVP-BKM120, 4-(trifluoromethyl)-5-(2,6-dimorpholinopyrimidin-4-yl)pyridin-2-amine]	Additivity (“Additivity” was indicated with a Loewe score of less than 5)	Synergy (“Synergy” was indicated by a Loewe score of greater than 5)	–
C[C@@H]1CN(c2ccc(Nc3ncc4ccn(-c5cc(F)c(CN6CCOCC6)c(F)c5)c4n3)cn2)C[C@H](C)N1 [NVP-BVB808]	Additivity (“Additivity” was indicated with a Loewe score of less than 5)	Additivity (“Additivity” was indicated with a Loewe score of less than 5)	–
Cc1nc(NC(=O)N2CCC[C@H]2C(N)=O)sc1-c1ccnc(C(C)(C)C(F)(F)F)c1 [NVP-BYL719]	Synergy (“Synergy” was indicated by a Loewe score of greater than 5)	Synergy (“Synergy” was indicated by a Loewe score of greater than 5)	–
COc1ccc(-c2ccc3c(N4CCOC[C@@H]4C)nc(N4CCOC[C@@H]4C)nc3n2)cc1CO [NVP-CCG168]	Additivity (“Additivity” was indicated with a Loewe score of less than 5)	Additivity (“Additivity” was indicated with a Loewe score of less than 5)	–
COc1cccc(-c2cc(F)ccc2[C@H]2Cc3nc(N)nc(C)c3C(=O)N2)n1 [NVP-HSP990]	Additivity (“Additivity” was indicated with a Loewe score of less than 5)	Additivity (“Additivity” was indicated with a Loewe score of less than 5)	–
CN[C@@H](C)C(=O)N[C@H](C(=O)N1CCC[C@H]1c1nc(C(=O)c2ccc(F)cc2)cs1)C1CCCCC1 [NVP-LCL161]	Synergy (“Synergy” was indicated by a Loewe score of greater than 5)	Synergy (“Synergy” was indicated by a Loewe score of greater than 5)	–
CCN(CC)CCNC(=O)c1c(C)[nH]c(/C=C2\C(=O)Nc3ccc(F)cc32)c1C [Sutent ®, Sunitinib]	Additivity (“Additivity” was indicated with a Loewe score of less than 5)	Additivity (“Additivity” was indicated with a Loewe score of less than 5)	–
NEG087 (antibody, human IgG1, kappa, V domains shown, Humanized, optimized variant of 9P3; human IgG1 kappa) VH: EVQLVESGGGLVQPGGSLRLSCAASGFTFSDYYMAWVRQAPGKGLEWVASINQNTGSTYYLDSVRGRFTISRDNAKNSLYLQMNSLRAEDTAVYYCARGDYYGTTYWYFDVWGQGTTVTVSS VL: DIQMTQSPSSLSASVGDRVTITCRASQSISSYLNWYQQKPGKAPKLLIYYTSRLQSGVPSRFSGSGSGTDFTLTISSLQPEDFATYYCQQGRRLWSFGGGTKVEIKR	–	–	binding result [2]: no binding (tested: 3.125-50 nM of cKIT ECD injected); binding result [3]: no binding (tested: 3.125-50 nM of cKIT ECD injected); Kd [4]: 1.13 nM; Kd [5]: 1.39 nM
NEG027 (antibody, human IgG1, kappa, V domains shown, Humanized, optimized variant of 9P3; human IgG1 kappa) VH: EVQLVESGGGLVQPGGSLRLSCAASGFTFSDYYMAWVRQAPGKGLEWVASINQNTGSTYYLDSVRGRFTISRDNAKNSLYLQMNSLRAEDTAVYYCARGDYYGTTYWYFDVWGQGTTVTVSS VL: EIVMTQSPATLSLSPGERATLSCRASQDISNYLNWYQQKPGQAPRLLIYYTSRLQSGIPARFSGSGSGTDYTLTISSLEPEDFAVYYCQQGKKLWSFGGGTKVEIKR	–	–	binding result [2]: no binding (tested: 3.125-50 nM of cKIT ECD injected); binding result [3]: no binding (tested: 3.125-50 nM of cKIT ECD injected); Kd [4]: 1.34 nM

Reference: patent US20150320880A1, “ANTIBODY DRUG CONJUGATES” (NOVARTIS AG, priority 2013, published 2015)
